“Also recorded” adds a separate entry of the source. Read-outs that look alike come from different tables or passages of the source.
Legend:
[1] = test system: PBEF gene expression in WISH cells; assay: PBEF gene expression in IL-1β-stimulated WISH cells with inhibitors, real-time PCR; assay type: cell-based, human; details: IL-1β 1 ng/ml; for effect on IL-1β-induced up-regulation of PBEF: inhibitor over a range of dilutions
Description: (§1) Thus, the human anmiotic epithelial-like cell line (WISH) was stimultated by addition of IL-1β (1 ng/ml) or by stretching (20%). In order to show any inhibitory effects on the expression of PBEF, a panel of inhibitors (SN50, Curcumin and PDTC) were added over a range of dilutions to both systems. Gene expression was quantitated by real-time PCR and normalized to 18 s.

IL-6 = details: Keelan et al.; cited from earlier work
NF-κB = NF-κB translocation in WISH cells, anti-p65 immunolabeling; assay type: cell-based, human; details: after addition of IL-1β
Description: as §1
Peak translocation of NF-κB from the cytoplasm to the nucleus occurred one hour after addition of IL-1β and was clearly seen by immunolabeling with an antibody (anti-p65) to one of the subunits of NF-κB. Increased PBEF gene expression also resulted from IL-1β stimulation.

PBEF gene expression = details: Ognjanovic et al., cited from earlier work
IL-8 = details: Keelan et al.; Laham et al.; cited from earlier work

Molecule	IL-6 transcription (IL-6)	PBEF gene expression / transcription (PBEF gene expression)	IL-8 transcription (IL-8)	effect on IL-1β-induced up-regulation of PBEF [1]	other results
IL-1β: proinflammatory cytokine interleukin-1-beta	stimulate	stimulate; also recorded: induced	stimulate	–	PBEF gene expression after stimulation [1]: Increased; time of peak translocation of NF-κB from the cytoplasm to the nucleus (NF-κB): one hour
IL-6: cytokine interleukin-6	–	induced	–	–	–
IL-8: cytokine interleukin-8	–	no such effect	–	–	–
S=C(S)N1CCCC1 [PDTC]	–	–	–	prevented the up-regulation of PBEF to varying degrees	–
TNF-α	stimulate	induced	stimulate	–	PBEF gene expression / transcription (PBEF gene expression; listed as TNF-A): stimulate
COc1cc(/C=C/C(=O)CC(=O)/C=C/c2ccc(O)c(OC)c2)ccc1O [Curcumin]	–	–	–	prevented the up-regulation of PBEF to varying degrees	–

Reference: patent US20050260683A1, “Methods for diagnosing and treating pre-term labor” (University of Hawaii, priority 2002, published 2005)
